Test results taken from patent US7361643B2, “Methods for inhibiting angiogenesis” (University of Puerto Rico, priority 2000, dated 2008).

Tested on: Factor VIII:C
Assay: Factor VIII:C level by enzyme-linked immunoassay (ELISA)
Assay type: cell-based, bovine
Conditions: 1 μg/ml tunicamycin
Protocol: In conducting ELISA, 96-well microtiter EIA plates, available from Corning Inc., Corning, N.Y., were coated overnight at 4° C. with 50 μl mouse monoclonal anti-Factor VIII:C antibody (i.e., IgG1k which is commercially available from Molecular Biochemicals (previously known as “Boehringer-Mannheim”), Indianapolis, Ind. (diluted 1:500) in 100 mM sodium carbonate buffer, pH 9.2. Blank wells were coated similarly with 0.25 μg of bovine serum albumin (BSA). The plates were washed three times 50 μl each wash with 50 mM Tris-HCl, pH 7.5 containing 150 mM NaCl and 0.5% (v/v) Tween-20 (TBST), available from Bio-Rad Laboratories, Richmond, Calif. and incubated at 37° C. for one hour with 50 μl conditioned media or cell lysates. The cell lysates were obtained by incubating for 20 minutes with 1 ml of ice-cold 20 mM TRIS-HCL, pH 8.0 buffer containing 150 mM NaCl, 1% (v/v) NP-40 and 1 μg/ml aprotinin. At the end of the incubation, the plates were washed three times with TBST, as above, and incubated at 37° C. for another hour with 50 μl of 1:500 diluted monoclonal anti-Factor VIII:C antibody. […] The absorbance was read at approximately 405 nm after 30 minutes by using an EIA microplate reader, Model 2550 with a 405 nm filter, both available from Bio-Rad Laboratories, Richmond, Calif. […]

For tunicamycin, the “time from which Factor VIII:C level started increasing” value was at least 32 h and the “level of immunopositive Factor VIII:C versus controls” value (conditioned media and cell lysates) was “high level”.
